# Test results as given in the supplement of paper PMC10307832.
# What was measured:
# Assay in all cases: relative viability (nuclei count vs DMSO), 5 days (fraction); higher = more cells survive
# kb NB 142-70 + Dasatinib = compound: C1CSC2=C(C(=O)N1)SC3=C2C=C(C=C3)O [kb NB 142-70] + Cc1nc(Nc2ncc(C(=O)Nc3c(C)cccc3Cl)s2)cc(N2CCN(CCO)CC2)n1 [Dasatinib] (partner 0.075 µM)
# Procedure, shortened: (§1)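 Medians of duplicate plates are given as relative viability. That measure is the nuclei count in treated wells divided by the count in vehicle wells. Counts were taken on 4× images of lung cancer cell lines in 1536-well plates, 5 days after pin-tool dosing the day after seeding with one drug alone or a fixed anchor-drug dose plus five library-drug doses (not always all listed) in √10 steps.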
# [1] = compound: C1CSC2=C(C(=O)N1)SC3=C2C=C(C=C3)O [kb NB 142-70] + Nc1nc2[nH]cc(CCc3ccc(C(=O)N[C@@H](CCC(=O)O)C(=O)O)cc3)c2c(=O)[nH]1 [Pemetrexed] (partner 0.2 µM)
# Procedure, shortened: as §1
# kb NB 142-70 + Olaparib = compound: C1CSC2=C(C(=O)N1)SC3=C2C=C(C=C3)O [kb NB 142-70] + O=C(c1cc(Cc2n[nH]c(=O)c3ccccc23)ccc1F)N1CCN(C(=O)C2CC2)CC1 [Olaparib] (partner 8 µM)
# Procedure, shortened: as §1
# [2] = compound: NCC(=O)Nc1ccc(-n2nc(C(F)(F)F)cc2-c2ccc3c(ccc4ccccc43)c2)cc1 + CS(=O)(=O)CCNCc1ccc(-c2ccc3ncnc(Nc4ccc(OCc5cccc(F)c5)c(Cl)c4)c3c2)o1 [Lapatinib] (partner 2 µM)
# Procedure, shortened: as §1
# [3] = compound: NCC(=O)Nc1ccc(-n2nc(C(F)(F)F)cc2-c2ccc3c(ccc4ccccc43)c2)cc1 + C[C@@H](Oc1cc(-c2cnn(C3CCNCC3)c2)cnc1N)c1c(Cl)ccc(F)c1Cl [Crizotinib] (partner 1 µM)
# Procedure, shortened: as §1
Cell Line,relative viability (kb NB 142-70 + Dasatinib; first compound 0.1 µM),relative viability (kb NB 142-70 + Dasatinib; first compound 1 µM),relative viability (kb NB 142-70 + Dasatinib; first compound 3.162 µM),relative viability ([1]; first compound 0.1 µM),relative viability ([1]; first compound 1 µM),relative viability ([1]; first compound 3.162 µM),relative viability (kb NB 142-70 + Olaparib; first compound 0.1 µM),relative viability (kb NB 142-70 + Olaparib; first compound 1 µM),relative viability (kb NB 142-70 + Olaparib; first compound 3.162 µM),relative viability ([2]; first compound 0.02 µM),relative viability ([2]; first compound 0.06325 µM),relative viability ([2]; first compound 0.2 µM),relative viability ([2]; first compound 0.6325 µM),relative viability ([2]; first compound 2 µM),relative viability ([3]; first compound 0.02 µM),relative viability ([3]; first compound 0.06325 µM),relative viability ([3]; first compound 0.2 µM),relative viability ([3]; first compound 0.6325 µM),relative viability ([3]; first compound 2 µM)
EPLC-272H,0.417,0.34,0.149,0.433,0.386,0.176,0.761,0.481,0.121,0.88,1.09,0.85,0.907,1.21,1.03,0.965,0.881,0.878,0.962
NCI-H1915,0.323,0.339,0.248,0.462,0.532,0.474,0.286,0.236,0.145,0.922,0.939,0.942,0.95,0.996,0.864,0.873,0.871,0.83,0.898
NCI-H2405,0.205,0.208,0.224,1.11,0.995,0.523,0.824,0.895,0.723,1.05,1.12,1.13,1.02,1.13,0.916,0.927,0.914,0.847,0.881
NCI-H322M,0.24,0.278,0.269,0.614,0.631,0.45,0.777,0.795,0.621,0.617,0.62,0.681,0.561,0.558,1.06,0.835,0.962,0.909,0.922
NCI-H2170,0.498,0.475,0.4,0.273,0.296,0.333,0.661,0.596,0.543,0.278,0.285,0.277,0.286,0.288,1.24,1.22,1.1,1.22,1.22
NCI-H358,0.15,0.109,0.127,0.175,0.141,0.114,0.531,0.489,0.297,0.553,0.323,0.41,0.528,0.491,0.622,0.557,0.572,0.56,0.761
NCI-H838,0.268,0.282,0.301,0.257,0.248,0.245,0.73,0.787,0.739,0.934,0.893,0.974,0.778,0.576,0.856,0.903,0.879,0.813,0.761
CAL-12T,0.408,0.375,0.414,1.11,1.34,1.27,0.7,0.691,0.677,0.671,0.823,0.672,0.709,0.679,0.682,0.73,0.591,0.716,0.722
